Experimental findings from PMC6147133, “The Toxoplasma gondii Active Serine Hydrolase 4 Regulates Parasite Division and Intravacuolar Parasite Architecture” (mSphere, 2018) are described below.

This experiment deals with T1, rASH4 (ASH4) (Toxoplasma gondii, UniProt A0A125YZ56).
T1 construct: full-length ORF from RH cDNA, N-terminal 6xHis tag (pET-28A, pIF22), E. coli BL21-CodonPlus(DE3)-RIL; active-site S124, G2 myristoylation site
T1 sequence (A0A125YZ56 1-260): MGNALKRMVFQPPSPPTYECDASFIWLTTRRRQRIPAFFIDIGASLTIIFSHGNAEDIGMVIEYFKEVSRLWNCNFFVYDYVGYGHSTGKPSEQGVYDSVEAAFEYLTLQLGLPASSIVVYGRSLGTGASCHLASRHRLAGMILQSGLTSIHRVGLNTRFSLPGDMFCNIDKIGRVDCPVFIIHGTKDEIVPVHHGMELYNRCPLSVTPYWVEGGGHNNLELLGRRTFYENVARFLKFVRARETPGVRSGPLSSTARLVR
The experiment in a line: fluorogenic hydrolysis assay. Type of experiment: biochemical. The note with it: 10 uM substrate, 150 nM enzyme.

As for `CC(=O)Oc1ccc2c(C)cc(=O)oc2c1` [4MU-acetate, 4-methyl-2-oxo-2H-chromen-7-yl acetate], the fluorogenic hydrolysis assay entry is given as “with the two-carbon acetyl ester having the highest rate of hydrolysis”.
